Where two headings read alike, the source gives them in different places.

Consider 17 molecules from patent US9556135B2, “Amino-dihydrothiazine and amino-dioxido dihydrothiazine compounds as beta-secretase antagonists and methods of use” (Amgen Inc., priority 2012, dated 2017).

For assay [1], the target named is Beta Secretase enzyme (BACE1) (Homo sapiens (Human), UniProt P56817). The assay can be described thus: In vitro enzymatic BACE FRET assay. The format is biochemical. As for the experimental part: In Vitro Enzymatic BACE FRET (Fluorescence Resonance Energy Transfer) Assay (Enzyme Assay Data in the Example Tables I and II)
Chain of Beta Secretase enzyme (BACE1) (P56817 46-501): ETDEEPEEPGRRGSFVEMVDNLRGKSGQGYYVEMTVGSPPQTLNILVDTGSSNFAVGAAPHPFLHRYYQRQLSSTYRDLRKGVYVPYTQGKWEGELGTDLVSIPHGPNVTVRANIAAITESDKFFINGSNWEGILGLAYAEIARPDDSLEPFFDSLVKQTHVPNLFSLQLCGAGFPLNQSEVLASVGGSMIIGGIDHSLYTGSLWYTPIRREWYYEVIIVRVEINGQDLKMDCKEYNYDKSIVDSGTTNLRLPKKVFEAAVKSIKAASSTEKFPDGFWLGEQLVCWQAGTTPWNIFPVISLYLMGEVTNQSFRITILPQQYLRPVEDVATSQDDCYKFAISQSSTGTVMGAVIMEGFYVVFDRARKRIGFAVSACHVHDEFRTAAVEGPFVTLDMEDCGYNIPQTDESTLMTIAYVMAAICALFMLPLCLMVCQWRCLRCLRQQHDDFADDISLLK
The assay buffer used in this screen is 0.05 M acetate, pH 4.2, 10% DMSO final, 100 uM genapol (which is a nonionic detergent, below its Critical Micelle Concentration). […] This assay is effectively started by the addition of FRET substrate (50 nM) and the combination is incubated for one hour. The FRET assay is terminated with by addition of Tris buffer, which raises the pH to neutrality, and the fluorescence is determined. The FRET substrate is a peptide with commercially available fluorophore and quencher, on opposite sides of the BACE cleavage site. Proteolytic cleavage of the FRET substrate releases quenching of fluorescence (excitation […] and […]).

The target of assay [2] is Cathepsin D (Cat D) (Homo sapiens (Human), UniProt P07339). The assay can be described thus: In vitro enzymatic Cathepsin D (Cat D) FRET assay. The format is biochemical. To be noted: read-out: CatD IC50. As for the experimental part:
In Vitro Enzymatic Cathepsin D (Cat D) FRET (Fluorescence Resonance Energy Transfer) Assay Recombinant Cat D was expressed in CHO cells. […] The Cat D enzyme (9 nM) is pre-incubated for one hour with inhibitors, typically in about 1 uL of DMSO according to a serial dilution, is added thereto. […] The FRET assay is terminated with by addition of Tris buffer, which raises the pH to neutrality, and the fluorescence is determined. The FRET substrate is a peptide with commercially available fluorophore and quencher, on opposite sides of the BACE cleavage site. The Cat D substrate peptide sequence is based on sequence #1 of Table 1 from Gulnik et al. […] Where available, the in-vitro Cat D FRET assay data for each of the Examples, conducted by the first procedure, is provided.

In assay [3] the test system is Abeta 40. The assay can be described thus: In vivo inhibition of beta-secretase: Abeta 40 reduction in CSF and brain of the rat. The conditions noted are these: 10 mpk (unless otherwise noted), after 4 hrs. The source says: In Vivo Inhibition of Beta-Secretase
Several animal models, including mouse, rat, dog, and monkey, may be used to screen for inhibition of beta-secretase activity in vivo following administration of a test compound sample. Animals used in this invention can be wild type, transgenic, or gene knockout animals. […] One to twenty-four hours following the administration of compound, animals are sacrificed, and brains as well as cerebrospinal fluid (CSF) and plasma are removed for analysis of A-beta levels and drug or test compound concentrations (Dovey et al., 2001, Journal of Neurochemistry, 76, 173-181) Beginning at time 0, animals are administered by oral gavage, or other means of delivery such as intravenous injection, an inhibitory test compound of up to 100 mg/kg in a standard, conventional formulation, such as 2% hydroxypropyl methylcellulose, 1% Tween80. A separate group of animals receive 2% hydroxypropyl methylcellulose, 1% Tween80 alone, containing no test compound, and serve as a vehicle-control group. At the end of the test period, animals are sacrificed and brain tissues, plasma or cerebrospinal fluid are collected. Brains are either homogenized in 10 volumes (w/v) of 0.2% diethylamine (DEA) in 50 mM NaCl (Best et al., 2005, Journal of Pharmacology and Experimental Therapeutics, 313, 902-908), or in 10 volumes of 0.5% TritonX-100 in Tris-buffered saline (pH at about 7.6). Homogenates are centrifuged at 355,000 g, 4° C. for 30 minutes. CSF or brain supernatants are then analyzed for the presence of A-beta peptide by specific sandwich ELISA assays based on ECL (Electrochemiluminescence) technology. For example, rat Abeta40 is measured using biotinylated-4G8 (Signet) as a capture antibody and Fab40 (an in-house antibody specific to the C-terminal of Abeta40) as a detection antibody.
Actual vehicles used: Oral: 2% HPMC, 1% Tween80, pH 2.2

Chain of Cathepsin D (Cat D) (P07339 65-412, species assumed): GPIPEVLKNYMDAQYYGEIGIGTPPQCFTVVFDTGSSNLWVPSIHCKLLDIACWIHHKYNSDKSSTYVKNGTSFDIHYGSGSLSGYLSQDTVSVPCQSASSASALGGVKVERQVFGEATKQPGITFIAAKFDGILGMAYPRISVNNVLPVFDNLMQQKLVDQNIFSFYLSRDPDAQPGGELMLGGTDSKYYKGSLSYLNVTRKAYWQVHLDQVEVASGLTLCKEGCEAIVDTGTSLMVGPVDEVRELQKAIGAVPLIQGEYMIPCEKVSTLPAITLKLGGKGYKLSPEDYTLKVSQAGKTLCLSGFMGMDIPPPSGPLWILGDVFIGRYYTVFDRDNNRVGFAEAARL

Turning to `COc1cnc2c(Nc3cnc(F)c([C@]4(C)CS(=O)(=O)C(C)(C)C(N)=N4)c3)nccc2c1` [Example 66, N-(5-((3R)-5-amino-3,6,6-trimethyl-1,1-dioxido-3,6-dihydro-2H-1,4-thiazin-3-yl)-6-fluoro-3-pyridinyl)-3-methoxy-1,7-naphthyridin-8-amine], the IC50 (usually the concentration that gives 50% inhibition) amounted to 0.0043 µM in assay [1] and 101 µM in assay [2].
Take `CC1(C)C(N)=N[C@@]2(c3cc(Br)ccc3F)COC[C@H]2S1(=O)=O` [Example 185a, (4aS,7aS)-3-amino-4a-(5-bromo-2-fluorophenyl)-2,2-dimethyl-4a,5,7,7a-tetrahydro-2H-furo[3,4-b][1,4]thiazine 1,1-dioxide]: the IC50 in assay [1] (average IC50, enzyme assay) was found to be 4.83 µM; in assay [2], 70.9 µM.
With `CC1(C)C(N)=N[C@@]2(c3cc(N)ccc3F)COC[C@H]2S1(=O)=O` [Example 185c, (4aS,7aS)-3-amino-4a-(5-amino-2-fluorophenyl)-2,2-dimethyl-4a,5,7,7a-tetrahydro-2H-furo[3,4-b][1,4]thiazine 1,1-dioxide], the IC50 in assay [1] (average IC50, enzyme assay) was more than 40 µM; in assay [2] (Cathepsin D FRET assay), more than 400 µM.
On the same counts, the results for `CC1(C)C(N)=N[C@]2(c3cc(N)ccc3F)COC[C@@H]2S1(=O)=O` [Example 185d, (4aR,7aR)-3-amino-4a-(5-amino-2-fluorophenyl)-2,2-dimethyl-4a,5,7,7a-tetrahydro-2H-furo[3,4-b][1,4]thiazine 1,1-dioxide] are 3.83 µM and 152 µM.
For the molecule `C[C@]1(c2cc(NC(=O)c3cnc(C(F)F)cn3)ccc2F)N=C(N)C2(CCC2)S(=O)(=O)[C@@H]1F` [Example 140, N-(3-((6S,7R)-9-amino-6-fluoro-7-methyl-5,5-dioxido-5-thia-8-azaspiro[3.5]non-8-en-7-yl)-4-fluorophenyl)-5-(difluoromethyl)pyrazine-2-carboxamide], in assay [2], the IC50 worked out at 400 µM.
On to `COc1cnc(C(=O)Nc2ccc(F)c([C@]3(C)CSCC(N)=N3)c2)cn1` [Example 43, (R)—N-(3-(5-amino-3-methyl-3,6-dihydro-2H-1,4-thiazin-3-yl)-4-fluorophenyl)-5-methoxypyrazine-2-carboxamide], for which, in assay [2], the IC50 was more than 400 µM.
With `CC1(C)C(N)=N[C@](C)(c2cc(Nc3nccc4cc(Cl)cnc34)cc(F)c2F)CS1(=O)=O` [Example 69, (R)-5-Amino-3-(5-((3-chloro-1,7-naphthyridin-8-yl)amino)-2,3-difluorophenyl)-3,6,6-trimethyl-3,6-dihydro-2H-1,4-thiazine 1,1-dioxide], the results for the IC50 in assay [1] and in assay [2] were 0.0014 µM and 11.3 µM, respectively.
With `CC1(C)C(N)=N[C@]2(c3cc(Br)ccc3F)COC[C@@H]2S1(=O)=O` [Example 185b, (4aR,7aR)-3-amino-4a-(5-bromo-2-fluorophenyl)-2,2-dimethyl-4a,5,7,7a-tetrahydro-2H-furo[3,4-b][1,4]thiazine 1,1-dioxide], the half-inhibitory concentration (IC50) is more than 40 µM in assay [1] (average IC50, enzyme assay) and more than 400 µM in assay [2].
On to `Cc1cc(OC(F)F)cnc1C(=O)Nc1ccc(F)c([C@]2(C)CS(=O)(=O)[C@@](C)(F)C(N)=N2)c1` [Example 321, N-(3-((3R,6R)-5-amino-6-fluoro-3,6-dimethyl-1,1-dioxido-3,6-dihydro-2H-1,4-thiazin-3-yl)-4-fluorophenyl)-5-(difluoromethoxy)-3-methyl-2-pyridinecarboxamide], for which, in assay [3], the “% reduction of rat CSF levels at 10 pmk” value is on record as 44% and the “% reduction of rat brain levels at 10 mpk” value (“% reduction … at 10 mpk” for short) came out at 37%.
Take `CC1(C)C(N)=N[C@](C)(c2cc(NC(=O)c3cnc(OCC(F)(F)F)cn3)ccc2F)CS1(=O)=O` [Example 346, N-(3-((3R)-5-amino-3,6,6-trimethyl-1,1-dioxido-3,6-dihydro-2H-1,4-thiazin-3-yl)-4-fluorophenyl)-5-(2,2,2-trifluoroethoxy)-2-pyrazinecarboxamide]: in assay [3], the “% reduction of rat CSF levels at 10 pmk” value was determined as 69% and the “% reduction … at 10 mpk” value amounted to 48%.
For `Cc1cc(OC(F)F)cnc1C(=O)Nc1ccc(F)c([C@]2(CF)CS(=O)(=O)C3(CCC3)C(N)=N2)c1` [Example 412, N-(3-((7S)-9-amino-7-(fluoromethyl)-5,5-dioxido-5-thia-8-azaspiro[3.5]non-8-en-7-yl)-4-fluorophenyl)-5-(difluoromethoxy)-3-methyl-2-pyridinecarboxamide] the same measures were 52% and 33%.
On the same counts, the results for `Cc1cc(Cl)cnc1C(=O)Nc1ccc(F)c([C@]2(C)CS(=O)(=O)[C@@](C)(F)C(N)=N2)c1` [Example 388, N-(3-((3R,6R)-5-amino-6-fluoro-3,6-dimethyl-1,1-dioxido-3,6-dihydro-2H-1,4-thiazin-3-yl)-4-fluorophenyl)-5-chloro-3-methyl-2-pyridinecarboxamide] are 33% and 7%.
For `CC1(C)C(N)=N[C@](CF)(c2cc(Nc3ncnc4cc(C#N)cnc34)ccc2F)CS1(=O)=O` [Example 236, 4-((3-((3S)-5-amino-3-(fluoromethyl)-6,6-dimethyl-1,1-dioxido-3,6-dihydro-2H-1,4-thiazin-3-yl)-4-fluorophenyl)amino)pyrido[3,2-d]pyrimidine-7-carbonitrile] the same measures were 35% and 1%.
Consider `COc1cnc2c(Nc3ccc(F)c([C@]4(C)CS(=O)(=O)C(C)(C)C(N)=N4)c3)nccc2c1` [Example 46, N-(3-((3R)-5-amino-3,6,6-trimethyl-1,1-dioxido-3,6-dihydro-2H-1,4-thiazin-3-yl)-4-fluorophenyl)-3-methoxy-1,7-naphthyridin-8-amine], for which, in assay [3], the “% reduction of rat CSF levels at 10 pmk” value is 76% and the “% reduction … at 10 mpk” value is 64%.
On the same counts, the results for `COc1cnc2c(Nc3cnc(F)c([C@]4(C)CS(=O)(=O)C(C)(C)C(N)=N4)c3)nccc2n1` [Example 222, N-(5-((3R)-5-amino-3,6,6-trimethyl-1,1-dioxido-3,6-dihydro-2H-1,4-thiazin-3-yl)-6-fluoro-3-pyridinyl)-2-methoxypyrido[3,4-b]pyrazin-5-amine] are 65% and 49%.
`CC1(C)C(N)=NC2(c3cc(Br)ccc3F)COCC2S1(=O)=O` (centres unmarked) [Example 185, 3-amino-4a-(5-bromo-2-fluorophenyl)-2,2-dimethyl-4a,5,7,7a-tetrahydro-2H-furo[3,4-b][1,4]thiazine 1,1-dioxide]: the IC50 in assay [1] (average IC50, enzyme assay) amounted to 30.2 µM; in assay [2] it was 322 µM.
As to `CC#CCOc1cnc(C(=O)Nc2ccc(F)c([C@@]3(C)N=C(N)C(C)(C)S(=O)(=O)C3F)c2)cn1` (stereo partly drawn) [Example 332, N-(3-((3R)-5-amino-2-fluoro-3,6,6-trimethyl-1,1-dioxido-3,6-dihydro-2H-1,4-thiazin-3-yl)-4-fluorophenyl)-5-(2-butyn-1-yloxy)-2-pyrazinecarboxamide], in assay [3], the “% reduction of rat CSF levels at 10 pmk” value came to 24% and the “% reduction … at 10 mpk” value is 11%.
